Assay results reported in patent US20230365488A1, “TRUXILLIC ACID MONOESTER-DERIVATIVES AS SELECTIVE FABP5 INHIBITORS AND PHARMACEUTICAL COMPOSITIONS AND USES THEREOF” (The Research Foundation for The State University of New York, priority 2020, published 2023).

Columns and labels:
FABP3 = FABP3 (Homo sapiens (Human), UniProt P05413); experiment: FABP3 fluorescent probe displacement binding assay; conditions: average ± S.E. of at least three independent experiments
FABP7 = FABP7 (Homo sapiens (Human), UniProt O15540); experiment: FABP7 fluorescent probe displacement binding assay; conditions: average ± S.E. of at least three independent experiments
Sequence of FABP7 (O15540 whole entry): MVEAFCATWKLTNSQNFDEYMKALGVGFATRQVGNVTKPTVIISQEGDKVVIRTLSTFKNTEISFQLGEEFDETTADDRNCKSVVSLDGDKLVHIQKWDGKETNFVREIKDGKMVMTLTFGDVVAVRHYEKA

FABP5 = FABP5 (Homo sapiens (Human), UniProt Q01469); experiment: FABP5 fluorescent probe displacement binding assay; conditions: for Ki: average ± S.E. of at least three independent experiments; for FABP3 Ki/FABP5 Ki: selectivity ratio FABP3 over FABP5
Sequence of FABP5 (Q01469 whole entry): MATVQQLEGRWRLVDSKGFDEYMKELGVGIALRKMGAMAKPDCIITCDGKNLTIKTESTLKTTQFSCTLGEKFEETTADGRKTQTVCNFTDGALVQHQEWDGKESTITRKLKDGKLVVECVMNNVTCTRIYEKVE

[1] = tested on: WI-38 (human normal lung fibroblast) cells; experiment: Cytotoxicity (MTT) assay, WI-38 (Example 5); type: cell-based; conditions: 72-hour incubation, 1% FBS
[2] = tested on: HepG2 (human liver cancer) cells; experiment: Cytotoxicity (MTT) assay, HepG2 (Example 5); type: cell-based; conditions: 72-hour incubation, 1% FBS
[3] = tested on: PC-3 (human metastatic prostate cancer) cells; experiment: Cytotoxicity (MTT) assay, PC-3 (Example 5); type: cell-based; conditions: 72-hour incubation, 1% FBS, read-out: PC3 IC50

Sequence of FABP3 (P05413 whole entry): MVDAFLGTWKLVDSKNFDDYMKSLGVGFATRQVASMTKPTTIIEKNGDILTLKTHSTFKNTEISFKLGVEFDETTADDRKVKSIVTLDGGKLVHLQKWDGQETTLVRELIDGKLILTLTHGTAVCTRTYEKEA

Row | Ki (FABP3) | Ki (FABP7) | Ki (FABP5) | FABP3 Ki/FABP5 Ki (FABP5) | Compound | IC50 [1] | IC50 [2] | IC50 [3]
1 | 18.6 ± 0.73 µM | 2.15 ± 0.09 µM |  |  | O=C(O)[C@@H]1[C@@H](c2ccccc2)[C@H](C(=O)Oc2cccc(-c3ccccc3)c2)[C@H]1c1ccccc1 [Compound 3b, (±) -ε-3-(1,1′-biphenyl-3-yloxycarbonyl)-2,4-diphenylcyclobutane-1-carboxylic acid] |  |  | 
2 | 8.18 ± 2.67 µM | 5.12 ± 0.32 µM | 3.69 ± 0.65 µM | 2.2 | COc1ccccc1C1[C@@H](C(=O)O)[C@@H](c2ccccc2OC)[C@H]1C(=O)Oc1cccc(-c2ccc3c(c2)OCCO3)c1 (mixture of isomers) [Compound 2k, (±)-γ-3-[3-(2,3-dihydrobenzo[b][1,4]dioxin-6-yl)phenoxycarbonyl]-2,4-di(2-methoxyphenyl)cyclobutane-1-carboxylic acid] |  |  | 
3 | 52.6 ± 8.62 µM | 8.04 ± 0.71 µM | 2.15 ± 0.17 µM | 24.5 | COc1ccccc1[C@H]1[C@H](C(=O)O)[C@H](c2ccccc2OC)[C@H]1C(=O)OCc1cccc2ccccc12 (racemic) [Compound 1q, (±)-α-2,4-bis(2-methoxyphenyl)-3-(naphthalen-1-ylmethoxycarbonyl)cyclobutane-1-carboxylic acid] | 20.3 µM | 12.4 µM | 11.3 µM
4 | 4.64 ± 0.04 µM | 3.16 ± 0.43 µM | 1.74 ± 0.08 µM | 2.7 | COc1ccccc1C1[C@@H](C(=O)O)[C@@H](c2ccccc2OC)[C@@H]1C(=O)Oc1cccc(-c2ccc(C#N)cc2)c1 (mixture of isomers) [Compound 1p, (±)-3-(4′-cyano-1,1′-biphenyl-3-yloxycarbonyl)-2,4-di (2-methoxyphenyl)cyclobutane-1-carboxylic acid] |  |  | 
5 | 1.3 ± 0.18 µM | 4.19 ± 0.71 µM | 2.56 ± 0.17 µM | 0.51 | O=C(O)[C@H]1[C@H](c2ccccc2)[C@@H](C(=O)Oc2ccc3cc(-c4cncnc4)ccc3c2)[C@H]1c1ccccc1 (racemic) [Compound 2m, (±)-γ-2,4-diphenyl-3-[6-(pyrimidin-5-yl)naphthalen-2-yloxy)carbonyl]cyclobutane-1-carboxylic acid] |  |  | 
6 | 1.66 ± 0.45 µM | 1.45 ± 0.52 µM |  |  | COc1ccccc1[C@H]1[C@H](C(=O)O)[C@H](c2ccccc2OC)[C@@H]1C(=O)Oc1cccc2ccccc12 (racemic) [Compound 2f, (±)-γ-2,4-di (2-methoxyphenyl)-3-(naphthalen-1-yloxycarbonyl)cyclobutane-1-carboxylic acid] |  |  | 
7 | 0.32 ± 0.03 µM | 0.38 ± 0.08 µM |  |  | O=C(O)[C@@H]1[C@@H](c2ccccc2)[C@H](C(=O)Oc2cccc3ccccc23)[C@H]1c1ccccc1 [Compound 3g] | 54.2 µM | 36.9 µM | 10.6 µM
8 | 4.75 ± 0.57 µM | 2.07 ± 0.09 µM |  |  | O=C(O)[C@@H]1[C@@H](c2ccccc2)[C@H](C(=O)OC2Cc3ccccc3C2)[C@H]1c1ccccc1 [Compound 3a, (±)-ε-3-[(2,3-dihydro-1H-inden-2-yl)oxycarbonyl]-2,4-diphenylcyclobutane-1-carboxylic acid] |  |  | 
9 | 1.28 ± 0.28 µM | 0.26 ± 0.09 µM | 1.59 ± 0.11 µM | 0.8 | COc1ccccc1[C@@H]1C(C(=O)O)[C@@H](c2ccccc2OC)C1C(=O)Oc1ccccc1-c1ccc2c(c1)OCO2 (mixture of isomers) [Compound 1n, (±)-α-3-[2-(bnzo[d][1,3]dioxol-5-yl)phenoxycarbonyl]-2,4-di (2-methoxyphenyl)cyclobutane-1-carboxylic acid] | 59.4 µM | 23.5 µM | 20.7 µM
10 | 3.29 ± 0.45 µM |  | 1.06 ± 0.08 µM |  | COc1ccccc1C1[C@@H](C(=O)O)[C@@H](c2ccccc2OC)[C@@H]1C(=O)Oc1cccc(-c2ccc3c(c2)NC(=O)C3)c1 (mixture of isomers) [Compound 1j, (±)-α-2,4-di (2-methoxyphenyl)-3-[3-(2-oxoindolin-6-yl)phenoxycarbonyl]cyclobutane-1-carboxylic acid] |  |  | 
11 | 6.1 ± 1.34 µM | 3.59 ± 0.24 µM | 1.77 ± 0.02 µM | 3.4 | COc1ccccc1[C@H]1[C@H](C(=O)O)[C@H](c2ccccc2OC)[C@@H]1C(=O)Oc1cccc(-c2ccc(F)cc2)c1 (racemic) [Compound 2e, (±)-γ-3-(4′-fluoro-1,1′-biphenyl-3-yl)oxycarbonyl-2,4-di (2-methoxyphenyl)cyclobutane-1-carboxylic acid] |  |  | 
12 | 2.29 ± 0.56 µM | 0.67 ± 0.15 µM | 2.81 ± 0.42 µM | 0.8 | COc1ccccc1C1[C@@H](C(=O)O)[C@@H](c2ccccc2OC)[C@@H]1C(=O)Oc1ccccc1-c1ccc2c(c1)OCCO2 (mixture of isomers) [Compound 1s, (±)-α-3-[2-(2,3-dihydrobenzo[b][1,4]dioxin-6-yl)phenoxycarbonyl]-2,4-bis(2-methoxyphenyl)cyclobutane-1-carboxylic acid] |  |  | 
13 | 1.13 ± 0.15 µM | 0.32 ± 0.13 µM | 0.79 ± 0.18 µM | 1.4 | O=C(O)[C@@H]1C(c2ccccc2)[C@@H](C(=O)Oc2ccccc2-c2ccc3c(c2)OCO3)[C@@H]1c1ccccc1 (mixture of isomers) [Compound 1i, (±)-α-3-[2-(benzo[d][1,3]dioxol-5-yl)phenoxycarbonyl]-2,4-di (2-dimethoxyphenyl)cyclobutane-1-dicarboxylic acid] |  |  | 
14 | 51.2 ± 5.71 µM | 10.2 ± 1.42 µM | 2.64 ± 0.01 µM | 9.0 | O=C(O)[C@H]1[C@H](c2ccccc2)[C@H](C(=O)OCc2cccc3ccccc23)[C@H]1c1ccccc1 [Compound 1r, α-2,4-diphenyl-3-(1-naphthaylmethyl)cyclobutane-1-carboxylic acid] |  |  | 
15 | 15.5 ± 1.91 µM | 2.19 ± 0.04 µM | 3.4 ± 0.52 µM | 4.7 | COc1ccccc1[C@H]1[C@H](C(=O)O)[C@H](c2ccccc2OC)[C@@H]1C(=O)Oc1cccc(-c2ccc(F)cc2)c1 [Compound 3e, ε-2,4-diphenyl-3-(4-fluorophenyl)phenoxycarbonylcyclobutane-1-carboxylic acid] |  |  | 
16 | 4.07 ± 0.24 µM | 3.49 ± 0.49 µM | 7.59 ± 1.11 µM | 0.54 | O=C1CCc2cc(-c3cccc(OC(=O)[C@H]4[C@@H](c5ccccc5)[C@@H](C(=O)O)[C@@H]4c4ccccc4)c3)ccc2N1 (racemic) [Compound 2n, (±)-γ-3-[(3-(2-oxo-1,2,3,4-tetrahydroquinolin-6-yl)phenoxycarbonyl]-2,4-diphenylcyclobutane-1-carboxylic acid] |  |  | 
17 | 53.8 ± 7.28 µM | 53.8 ± 7.28 µM |  |  | COc1ccccc1C1[C@@H](C(=O)O)[C@@H](c2ccccc2OC)[C@@H]1C(=O)OC1Cc2ccccc2C1 (mixture of isomers) [Compound 1l, (±)-α-3-(2,3-dihydro-1-inden-2-yloxycarbonyl)-2,4-di (2-methoxyphenyl)cyclobutane-1-carboxylic acid] | 63.7 µM | 45.5 µM | 48.9 µM
18 | 27.9 ± 6.37 µM | 9.11 ± 1.47 µM | 2.46 ± 0.19 µM | 11.3 | COc1ccccc1C1[C@@H](C(=O)O)[C@@H](c2ccccc2OC)[C@H]1C(=O)Oc1cccc(-c2ccc(C#N)cc2)c1 (mixture of isomers) [Compound 2g, (±)-γ-3-(4′-cyano-1,1′-biphenyl]-3-yloxycarbonyl)-2,4-di (2-methoxyphenyl)cyclobutane-1-carboxylic acid] |  |  | 
19 | 5.78 ± 1.3 µM | 0.95 ± 0.05 µM | 1.39 ± 0.07 µM | 4.1 | N#Cc1ccc(-c2ccccc2OC(=O)[C@H]2C(c3ccccc3)[C@@H](C(=O)O)[C@H]2c2ccccc2)cc1 (mixture of isomers) [Compound 2d, (±)-γ-3-(4′-cyano-1,1′-biphenyl]-2-yloxycarbonyl)-2,4-diphenylcyclobutane-1-carboxylic acid] |  |  | 
20 | 2.7 ± 0.42 µM | 0.45 ± 0.07 µM |  |  | O=C(O)[C@H]1[C@H](c2ccccc2)[C@H](C(=O)Oc2cccc3ccccc23)[C@H]1c1ccccc1 [Compound 1x] |  |  | 
21 | > 10 µM | 2.41 ± 0.09 µM |  |  | O=C(O)[C@H]1[C@@H](c2ccccc2)[C@H](C(=O)OC2Cc3ccccc3C2)[C@@H]1c1ccccc1 [Compound 1v] |  |  | 
22 | 136 ± 16.4 µM | 5.14 ± 0.27 µM |  |  | COc1ccccc1C1[C@@H](C(=O)OC2Cc3ccccc3C2)[C@@H](c2ccccc2OC)[C@H]1C(=O)O (mixture of isomers) [Compound 2l, (±)-γ-3-(2,3-dihydro-1H-inden-2-yloxycarbonyl)-2,4-bis(2-methoxyphenyl)cyclobutane-1-carboxylic acid] |  |  | 
23 | 7.67 ± 0.71 µM | 0.33 ± 0.01 µM | 0.59 ± 0.08 µM | 13.0 | O=C1CCc2ccc(-c3cccc(OC(=O)[C@H]4[C@@H](c5ccccc5)[C@H](C(=O)O)[C@@H]4c4ccccc4)c3)cc2N1 [Compound 1u] |  |  | 
24 | 4.78 ± 0.18 µM | 6.36 ± 1.04 µM | 1.3 ± 0.09 µM | 3.7 | COc1ccccc1[C@@H]1[C@H](C(=O)O)[C@@H](c2ccccc2OC)[C@H]1C(=O)Oc1ccc2cc(-c3cncnc3)ccc2c1 (racemic) [Compound 1k, (±)-α-2,4-di (2-methoxyphenyl)-3-[7-(5-pyrimidine)naphthalen-2-yloxycarbonyl]cyclobutane-1-carboxylic acid] |  |  | 
25 | 25.9 ± 2.4 µM | 7.72 ± 1.2 µM | 1.83 ± 0.27 µM | 14.2 | COc1ccccc1[C@H]1[C@H](C(=O)O)[C@H](c2ccccc2OC)[C@H]1C(=O)OCC1(F)c2ccccc2-c2ccccc21 [Compound 1t] |  |  | 
26 | 7.84 ± 0.7 µM | 1.49 ± 0.15 µM | 3.15 ± 0.28 µM | 2.5 | O=C(O)[C@@H]1[C@@H](c2ccccc2)[C@H](C(=O)Oc2cccc(-c3ccc4c(c3)OCCO4)c2)[C@H]1c1ccccc1 [Compound 3d, (±)-ε-3-[3-(2,3-dihydrobenzo[b][1,4]dioxin-6-yl)phenoxycarbonyl]-2,4-diphenylcyclobutane-1-carboxylic acid] |  |  | 

Row | Compound | Ki (FABP3) | Ki (FABP7) | Ki (FABP5) | FABP3 Ki/FABP5 Ki (FABP5) | IC50 [1] | IC50 [2] | IC50 [3]
27 | O=C(O)[C@H]1[C@H](c2ccccc2)[C@H](C(=O)Oc2ccccc2-c2ccccc2)[C@H]1c1ccccc1 [Compound 1z] | 0.7 ± 0.42 µM |  |  |  |  |  | 
